Measurements as given in patent publication US20250289787A1, “HERBICIDAL 2-OXO-NICOTINIC ACID DERIVATIVES” (SYNGENTA CROP PROTECTION AG, priority 2022, published 2025).

What was measured:
Type in all cases: in vivo
Design in all cases: key: 5=81-100%; 4=61-80%; 3=41-60%; 2=21-40%; 1=1-20%; 0=no damage to the plant; -=not tested
[1] = system: Amaranthus retoflexus (AMARE); test: Post-emergence test, herbicidal damage; conditions: sprayed after 8 days cultivation, 1000 g/ha unless otherwise stated, evaluated after 13 days, five-point scale
Outline: (§1)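 In the post-emergence test, pot-grown plants were sprayed 8 days after sowing with compound in acetone/water (50:50) containing 0.5% Tween 20, at 1000 g/ha unless stated otherwise. Plants were kept in a glasshouse at 24° C./16° C., 14 hours light and 65% humidity. Damage was scored after 13 days on a 0–5 scale (5=81-100%).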

[2] = system: Ipomoea hederacea (IPOHE); test: Post-emergence test, herbicidal damage; conditions: sprayed after 8 days cultivation, 1000 g/ha unless otherwise stated, evaluated after 13 days, five-point scale
Outline: as §1

Setaria faberi (SETFA) [3] = test: Post-emergence test, herbicidal damage; conditions: sprayed after 8 days cultivation, 1000 g/ha unless otherwise stated, evaluated after 13 days, five-point scale
Outline: as §1

Zea mays (ZEAMX) [4] = test: Post-emergence test, herbicidal damage; conditions: sprayed after 8 days cultivation, 1000 g/ha unless otherwise stated, evaluated after 13 days, five-point scale
Outline: as §1

[5] = system: Amaranthus palmeri (AMAPA); test: Post-emergence test, herbicidal damage; conditions: sprayed after 8 days cultivation, 1000 g/ha unless otherwise stated, evaluated after 13 days, five-point scale
Outline: as §1

[6] = system: Echinochloa crus-galli (ECHCG); test: Post-emergence test, herbicidal damage; conditions: sprayed after 8 days cultivation, 1000 g/ha unless otherwise stated, evaluated after 13 days, five-point scale
Outline: as §1

[7] = system: Amaranthus retoflexus (AMARE); test: Pre-emergence test, herbicidal damage; conditions: 1000 g/ha unless otherwise stated, evaluated after 13 days, five-point scale
Zea mays (ZEAMX) [8] = test: Pre-emergence test, herbicidal damage; conditions: 1000 g/ha unless otherwise stated, evaluated after 13 days, five-point scale
[9] = system: Echinochloa crus-galli (ECHCG); test: Pre-emergence test, herbicidal damage; conditions: 1000 g/ha unless otherwise stated, evaluated after 13 days, five-point scale
Setaria faberi (SETFA) [10] = test: Pre-emergence test, herbicidal damage; conditions: 1000 g/ha unless otherwise stated, evaluated after 13 days, five-point scale
[11] = system: Ipomoea hederacea (IPOHE); test: Pre-emergence test, herbicidal damage; conditions: 1000 g/ha unless otherwise stated, evaluated after 13 days, five-point scale
[12] = system: Amaranthus palmeri (AMAPA); test: Pre-emergence test, herbicidal damage; conditions: 1000 g/ha unless otherwise stated, evaluated after 13 days, five-point scale

SMILES | percentage damage caused to the plant, AMARE [1] | percentage damage caused to the plant, IPOHE [2] | percentage damage caused to the plant, SEFTA (Setaria faberi (SETFA) [3]) | percentage damage caused to the plant, ZEAMX (Zea mays (ZEAMX) [4]) | percentage damage caused to the plant, AMAPA [5] | percentage damage caused to the plant, ECHCG [6] | percentage damage caused to the plant, AMARE [7] | percentage damage caused to the plant, ZEAMX (Zea mays (ZEAMX) [8]) | percentage damage caused to the plant, ECHCG [9] | percentage damage caused to the plant, SEFTA (Setaria faberi (SETFA) [10]) | percentage damage caused to the plant, IPOHE [11] | percentage damage caused to the plant, AMAPA [12]
C=Cc1c(-c2ccc(Cl)c(Cl)c2)c(C(=O)O)c(=O)n(-c2ccc(Cl)cc2F)c1C [Compound 32, 1-(4-chloro-2-fluoro-phenyl)-4-(3,4-dichlorophenyl)-6-methyl-2-oxo-5-vinyl-pyridine-3-carboxylic acid] | 3 (3=41-60%) | 2 (2=21-40%) | 1 (1=1-20%) | 1 (1=1-20%) | 4 (4=61-80%) | 1 (1=1-20%) | 3 (3=41-60%) | 1 (1=1-20%) | 2 (2=21-40%) | 1 (1=1-20%) | 1 (1=1-20%) | 4 (4=61-80%)
Cc1c(Br)c(-c2ccc(Cl)c(Cl)c2)c(C(=O)O)c(=O)n1Cc1ccc(C#N)cc1F [Compound 33, 5-bromo-1-[(4-cyano-2-fluoro-phenyl)methyl]-4-(3,4-dichlorophenyl)-6-methyl-2-oxo-pyridine-3-carboxylic acid] | 3 (3=41-60%) | 1 (1=1-20%) | 1 (1=1-20%) | 1 (1=1-20%) | 3 (3=41-60%) | 1 (1=1-20%) | 3 (3=41-60%) | 1 (1=1-20%) | 1 (1=1-20%) | 1 (1=1-20%) | 1 (1=1-20%) | 3 (3=41-60%)
Cc1c(Cl)c(-c2ccc(Cl)c(Cl)c2)c(C(=O)O)c(=O)n1Cc1ccc(F)cc1F [Compound 34, 5-chloro-4-(3,4-dichlorophenyl)-1-[(2,4-difluorophenyl)methyl]-6-methyl-2-oxo-pyridine-3-carboxylic acid] | 3 (3=41-60%) | 1 (1=1-20%) | 0 | 0 | 4 (4=61-80%) | 1 (1=1-20%) | 3 (3=41-60%) | 0 | 1 (1=1-20%) | 1 (1=1-20%) | 0 | 4 (4=61-80%)
CCc1c(-c2ccc(Cl)c(Cl)c2)c(C(=O)O)c(=O)n(-c2ccc(Cl)cc2F)c1C [Compound 35, 1-(4-chloro-2-fluoro-phenyl)-4-(3,4-dichlorophenyl)-5-ethyl-6-methyl-2-oxo-pyridine-3-carboxylic acid] | 4 (4=61-80%) | 1 (1=1-20%) | 0 | 0 | 4 (4=61-80%) | 0 | 4 (4=61-80%) | 0 | 1 (1=1-20%) | 0 | 0 | 4 (4=61-80%)
COCc1c(-c2ccc(Cl)c(Cl)c2)c(C(=O)O)c(=O)n(-c2ccc(F)cc2F)c1C [Compound 36, 4-(3,4-dichlorophenyl)-1-(2,4-difluorophenyl)-5-(methoxymethyl)-6-methyl-2-oxo-pyridine-3-carboxylic acid] | 2 (2=21-40%) | 1 (1=1-20%) | 1 (1=1-20%) | 0 | 2 (2=21-40%) | 0 | 2 (2=21-40%) | 0 | 1 (1=1-20%) | 0 | 1 (1=1-20%) | 2 (2=21-40%)
Cc1c(C2CC2)c(-c2ccc(Cl)c(Cl)c2)c(C(=O)O)c(=O)n1-c1ccc(F)cc1F [Compound 37, 5-cyclopropyl-4-(3,4-dichlorophenyl)-1-(2,4-difluorophenyl)-6-methyl-2-oxo-pyridine-3-carboxylic acid] | 3 (3=41-60%) | 2 (2=21-40%) | 1 (1=1-20%) | 1 (1=1-20%) | 4 (4=61-80%) | 1 (1=1-20%) | 3 (3=41-60%) | 1 (1=1-20%) | 2 (2=21-40%) | 1 (1=1-20%) | 1 (1=1-20%) | 4 (4=61-80%)
C=Cc1c(-c2ccc(Cl)c(Cl)c2)c(C(=O)O)c(=O)n(-c2ccc(F)cc2F)c1C [Compound 38, 4-(3,4-dichlorophenyl)-1-(2,4-difluorophenyl)-6-methyl-2-oxo-5-vinyl-pyridine-3-carboxylic acid] | 1 (1=1-20%) | 2 (2=21-40%) | 0 | 0 | 1 (1=1-20%) | 0 | 1 (1=1-20%) | 0 | 2 (2=21-40%) | 0 | 0 | 1 (1=1-20%)
Cc1c(C2CC2)c(-c2ccc(Cl)c(Cl)c2)c(C(=O)O)c(=O)n1Cc1ccc(Cl)cc1F [Compound 39, 1-[(4-chloro-2-fluoro-phenyl)methyl]-5-cyclopropyl-4-(3,4-dichlorophenyl)-6-methyl-2-oxo-pyridine-3-carboxylic acid] | 0 | 2 (2=21-40%) | 1 (1=1-20%) | 1 (1=1-20%) | 1 (1=1-20%) | 2 (2=21-40%) | 0 | 1 (1=1-20%) | 2 (2=21-40%) | 2 (2=21-40%) | 1 (1=1-20%) | 1 (1=1-20%)
CC#Cc1c(-c2ccc(Cl)c(Cl)c2)c(C(=O)O)c(=O)n(-c2cc(F)cc(Cl)c2)c1C [Compound 40, 1-(3-chloro-5-fluoro-phenyl)-4-(3,4-dichlorophenyl)-6-methyl-2-oxo-5-prop-1-ynyl-pyridine-3-carboxylic acid] | 0 | 0 | 0 | 0 | 0 | 0 | 0 | 0 | 0 | 0 | 0 | 0
